Experiments:
[1] = tested on: LAN-1 cells; assay: Polyamine pool analysis in inhibitor-treated LAN-1 cells; type: cell-based, human; conditions: DFMO = 5 mM, SAM486A = 10 μM, Spd = 10 μM
Experimental: Combined inhibition of both enzymes decreased polyamine pools to various degrees, and exogenous supplementation of Spd (10 μM) to cell cultures led to a substantial increase in Spd. […] In untreated control cells, the levels of Put and Spd decreased during exponential cell growth and proliferation (day 0 to day 3), which is also consistent with a decrease in ODC and AdoMetDC enzyme activities (FIGS. 3d and 3e). Spm levels decreased in untreated LAN-1 cells and remained the same in NMB-7 cells (Table 1).
(§1) Human NB cell lines were provided by Dr. Robert Seeger (LAN-1; University of California, Los Angeles, Calif.), Dr. Nai-Kong Cheung (NMB-7; Memorial Sloan-Kettering Cancer Center, NY), and the American Type Culture Collection (SK-N-SH; ATCC, Manassas, Va.). Cells were maintained in RPMI 1640 (Biosource, Rockeville, Md.) containing 10% heat-inactivated fetal bovine serum (FBS) (Invitrogen, Carlsbad, Calif.), penicillin (100 IU/ml) and streptomycin (100 μg/ml). If cells were treated with exogenous Spd, 1 mM of aminoguanidine was included as an inhibitor of serum polyamine oxidation. […] For growth and proliferation inhibition, polyamine pool, and cell cycle studies, 10 μM Spd was added together with inhibitors, and cells were assayed on days 2 and/or 3.
Intracellular polyamines were extracted from cell pellets by a method known in the art. In brief, cells were washed and centrifuged. After sonication and centrifugation, 250 μl of supernatant, 100 μl of saturated sodium carbonate, and 300 μl of 25 mg/ml dansyl chloride (5-dimethylamino-naphthalene-1-sulfonyl chloride) (Fluka, Switzerland) were mixed and analyzed via reverse phase HPLC using a C18 reverse-phase analytical column (Waters, Milford, Mass.). The effluent from the column was monitored at 510 nm (excitation at 330 nm). Polyamine levels were determined using appropriate standards. The samples were normalized in 0.2 N sodium hydroxide and the amount of total protein per sample was measured using the Bradford assay (70). Polyamine levels are expressed as nmol per mg of total cellular protein.

[2] = tested on: NMB-7 cells; assay: Cell cycle phase distribution (propidium iodide), NMB-7; type: cell-based, human; conditions: DFMO = 5 mM, SAM486A = 10 μM, Spd = 10 μM, mean ± SD
Description: This profile, which is typical for cell cycle arrest at G1, was enhanced by the combination of both inhibitors, with the majority of cells in G1 (˜71-73%), a reduced number of cells in S phase (˜20-28%), and a small portion in G2/M (˜2-7%).
as §1

[3] = tested on: human ovarian cancer cells (SKOV-3); assay: Growth, proliferation and morphology of ovarian cancer cells; type: cell-based; conditions: DFMO or SAM486A
Description: (Bachmann, A S, (2004) Hawaii Med. Journal, 63:371-373, which is incorporated herein by reference in its entirety). […] Micrographs were taken using an inverted phase contrast microscope (Nikon). In comparison with the ovarian cancer cells SKOV-3, the growth and proliferation of NB cells LAN-1 was inhibited much more drastically and caused significant morphological changes after only 3 days of treatment.
Similar effects were already apparent after 1-2 days (not shown). By comparison, the treatment of human melanoma cells (MALME-3) with polyamine inhibitors required more extensive incubation times (8-12 days) and led to less obvious rearrangements in cell structures (Kramer et al., (2001). Cancer Res, 61, 7754-62, which is incorporate herein by reference in its entirety).

[4] = tested on: p27^Kip1; assay: Western blot of p27Kip1 in inhibitor-treated NB cells; type: cell-based, human; conditions: LAN-1 and NMB-7; 5 mM DFMO, 10 μM SAM486A; days 2 and 3, relative to untreated control
Experimental: To further investigate the mechanism that regulates G1 arrest in LAN-1 and NMB-7 cells, and to define the changes in associated protein responses, the cell cycle-related proteins p21^Waf1/Cip1, p27^Kip1, p53, Rb, and MYCN in NB cell lysates were studied. Cells were analyzed on days 1, 2, and 3. Equal amounts of total protein were loaded in all experiments. Proteins were scanned and the ratio of hypophosphorylated Rb (pRb) (lower band):hyperphosphorylated Rb (ppRb) (upper band) was calculated (b). MYCN bands were quantified and normalized relative to β-actin. Values are presented as percentage (%) of controls of day 1, 2 or 3. (c). The data are representative of at least three independent experiments. […] To test for the presence of the cdk inhibitor protein p21^Waf1/Cip1, identical experiments were conducted, but the protein could not be detected (not shown). Low levels of p21^Waf1/Cip1 in NB cells have been previously described (McKenzie et al., (2003). Cancer Res, 63, 3840-4, which is incorporated herein by reference in its entirety). Similarly, the tumor suppressor protein p53 was not detected (not shown), which is in agreement with previous findings that cell lines LAN-1 and NMB-7 are p53 deficient. In contrast, p53 was readily expressed in identical Western blot control experiments and detected by immunofluorescence using the p53 wild type cell line SK-N-SH (not shown).

[5] = tested on: retinoblastoma protein Rb; assay: Western blot of Rb phosphorylation in inhibitor-treated NB cells; type: cell-based, human; conditions: LAN-1 and NMB-7; days 2 and 3
Experimental: To further investigate the mechanism that regulates G1 arrest in LAN-1 and NMB-7 cells, and to define the changes in associated protein responses, the cell cycle-related proteins p21^Waf1/Cip1, p27^Kip1, p53, Rb, and MYCN in NB cell lysates were studied. Cells were analyzed on days 1, 2, and 3. Equal amounts of total protein were loaded in all experiments. Proteins were scanned and the ratio of hypophosphorylated Rb (pRb) (lower band):hyperphosphorylated Rb (ppRb) (upper band) was calculated (b). MYCN bands were quantified and normalized relative to β-actin. Values are presented as percentage (%) of controls of day 1, 2 or 3. (c). The data are representative of at least three independent experiments.
The retinoblastoma protein Rb can be regulated through the action of p27^Kip1. Rb phosphorylation reduces the levels of functional Rb/E2F repressor complexes and activates E2F-responsive promoters important for moving the cell through the G1/S phase of the cell cycle. […] Rb hypophosphorylation was further confirmed with total Rb showing a visible mobility shift from a hyperphosphorylated form (upper band) to a hypophosphorylated form (lower band). […] Hypophosphorylation of Rb is a known consequence of p27^Kip1 induction, and this is in strong agreement with our findings.

NCCC[C@](N)(C(=O)O)C(F)F [DFMO, α-difluoromethylornithine]
Polyamine pools PUT ([1]; LAN-1, Day 2): 0.3 NMOL/MG TOTAL PROTEIN
Polyamine pools SPD ([1]; LAN-1, Day 2): 2.2 NMOL/MG TOTAL PROTEIN
Polyamine pools SPM ([1]; LAN-1, Day 2): 8.7 NMOL/MG TOTAL PROTEIN
Polyamine pools PUT ([1]; LAN-1, Day 3): 0.0 NMOL/MG TOTAL PROTEIN
Polyamine pools SPD ([1]; LAN-1, Day 3): 1.9 NMOL/MG TOTAL PROTEIN
Polyamine pools SPM ([1]; LAN-1, Day 3): 8.1 NMOL/MG TOTAL PROTEIN
Cell cycle G1 ([2]; NMB-7, day 2): 60.3 ± 3.9 % TOTAL CELLS
Cell cycle G2/M ([2]; NMB-7, day 2): 8.4 ± 2.9 % TOTAL CELLS
Cell cycle S ([2]; NMB-7, day 2): 31.3 ± 6.5 % TOTAL CELLS
Cell cycle G1 ([2]; NMB-7, day 3): 58.8 ± 2.6 % TOTAL CELLS
Cell cycle G2/M ([2]; NMB-7, day 3): 10.2 ± 3.9 % TOTAL CELLS
Cell cycle S ([2]; NMB-7, day 3): 31.0 ± 6.3 % TOTAL CELLS
cell morphology [3]: no visible changes in cell morphology
p27^Kip1 protein levels [4]: increased endogenous levels of cdk inhibitor protein p27^Kip1
Rb phosphorylation (Ser795, Ser807/811) [5]: strong hypophosphorylation of Rb

N=C(N)c1cccc2c1CC/C2=N\N=C(N)N [SAM486A, 4-amidinoindan-1-one 2′-amidinohydrazone]
Polyamine pools PUT ([1]; LAN-1, Day 2): 48.5 NMOL/MG TOTAL PROTEIN
Polyamine pools SPD ([1]; LAN-1, Day 2): 5.5 NMOL/MG TOTAL PROTEIN
Polyamine pools SPM ([1]; LAN-1, Day 2): 4.2 NMOL/MG TOTAL PROTEIN
Polyamine pools PUT ([1]; LAN-1, Day 3): 43.7 NMOL/MG TOTAL PROTEIN
Polyamine pools SPD ([1]; LAN-1, Day 3): 5.0 NMOL/MG TOTAL PROTEIN
Polyamine pools SPM ([1]; LAN-1, Day 3): 3.5 NMOL/MG TOTAL PROTEIN
Cell cycle G1 ([2]; NMB-7, day 2): 54.1 ± 4.3 % TOTAL CELLS
Cell cycle G2/M ([2]; NMB-7, day 2): 9.3 ± 3.2 % TOTAL CELLS
Cell cycle S ([2]; NMB-7, day 2): 36.6 ± 6.0 % TOTAL CELLS
Cell cycle G1 ([2]; NMB-7, day 3): 56.4 ± 6.5 % TOTAL CELLS
Cell cycle G2/M ([2]; NMB-7, day 3): 8.5 ± 1.4 % TOTAL CELLS
Cell cycle S ([2]; NMB-7, day 3): 35.2 ± 7.0 % TOTAL CELLS
cell morphology [3]: no visible changes in cell morphology
p27^Kip1 protein levels [4]: did not alter p27^Kip1 levels
Rb phosphorylation (Ser795, Ser807/811) [5]: much less pronounced
